Reference: PubChem BioAssay AID248 (DTP/NCI, 2004)
“And” between values parts separate entries of the source, which are not always exact repeats. Equal entries are not always repeated. Inconclusive results and toxic doses are left out. Cut-off read from the data, not from the text of the source: active = T/C of 150% or more; inactive = T/C below 125%.

Test system: L1210 leukemia ip in BDF1 mice, survival T/C
Experiment: NCI In Vivo Anticancer Drug Screen. Data for tumor model L1210 Leukemia (intraperitoneal) in B6D2F1 (BDF1) mice
Settings: endpoint: mean survival time, higher = longer survival
Outline: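 Tumor cells were implanted, animals were treated, and survival was followed. The result divides the treated measurement by the vehicle-control measurement.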

[1] = dose: 100.0 mg/kg/injection, schedule: Q01DX001 (ip), vehicle: other
[2] = dose: 200.0 mg/kg/injection, schedule: Q01DX001 (ip), vehicle: other
[3] = dose: 400.0 mg/kg/injection, schedule: Q01DX001 (ip), vehicle: other
[4] = dose: 100.0 mg/kg/injection, schedule: Q04DX002 (ip), vehicle: Klucel (hydroxypropylcellulose) (HPC)
[5] = dose: 100.0 mg/kg/injection, schedule: Q04DX003 (ip), vehicle: other
[6] = dose: 200.0 mg/kg/injection, schedule: Q04DX002 (ip), vehicle: Klucel (hydroxypropylcellulose) (HPC)
[7] = dose: 200.0 mg/kg/injection, schedule: Q04DX003 (ip), vehicle: other
[8] = dose: 400.0 mg/kg/injection, schedule: Q04DX002 (ip), vehicle: Klucel (hydroxypropylcellulose) (HPC)
[9] = dose: 400.0 mg/kg/injection, schedule: Q04DX003 (ip), vehicle: other
[10] = dose: 100.0 mg/kg/injection, schedule: Q04DX002 (ip), vehicle: saline with Tween-80
[11] = dose: 200.0 mg/kg/injection, schedule: Q04DX002 (ip), vehicle: saline with Tween-80
[12] = dose: 400.0 mg/kg/injection, schedule: Q04DX002 (ip), vehicle: saline with Tween-80
[13] = dose: 100.0 mg/kg/injection, schedule: Q01DX009 (ip), vehicle: saline with Tween-80
[14] = dose: 200.0 mg/kg/injection, schedule: Q01DX009 (ip), vehicle: saline with Tween-80
[15] = dose: 400.0 mg/kg/injection, schedule: Q01DX009 (ip), vehicle: saline with Tween-80

Measured: T/C

Nc1ccc(O)cc1
inactive: dose: 12.5 mg/kg/injection, schedule: Q04DX003 (ip), vehicle: saline 92 % of control | dose: 25.0 mg/kg/injection, schedule: Q04DX003 (ip), vehicle: saline 95 % of control | dose: 35.0 mg/kg/injection, schedule: Q01DX Z (ip), vehicle: acid diluted with saline 92 % of control | dose: 35.0 mg/kg/injection, schedule: Q01DX Z (ip), vehicle: other 97 % of control | dose: 40.0 mg/kg/injection, schedule: Q01DX Z (ip), vehicle: methylcellulose (MC) 113 % of control | dose: 53.0 mg/kg/injection, schedule: Q01DX010 (sc), vehicle: saline 94 % of control | dose: 53.0 mg/kg/injection, schedule: Q01DX Z (ip), vehicle: acid diluted with saline 104 % of control | dose: 53.0 mg/kg/injection, schedule: Q01DX Z (ip), vehicle: other 103 % of control | dose: 53.0 mg/kg/injection, schedule: Q01DX Z (ip), vehicle: saline 98 % of control | dose: 80.0 mg/kg/injection, schedule: Q01DX Z (ip), vehicle: acid diluted with saline 108 % of control | dose: 80.0 mg/kg/injection, schedule: Q01DX Z (ip), vehicle: other 101 % of control | dose: 80.0 mg/kg/injection, schedule: Q01DX Z (ip), vehicle: saline 114 % of control | dose: 120.0 mg/kg/injection, schedule: Q01DX010 (sc), vehicle: saline 98 % of control | dose: 120.0 mg/kg/injection, schedule: Q01DX Z (ip), vehicle: acid diluted with saline 115 % of control | dose: 120.0 mg/kg/injection, schedule: Q01DX Z (ip), vehicle: other 114 % of control | dose: 120.0 mg/kg/injection, schedule: Q01DX Z (ip), vehicle: saline 112 % of control | dose: 160.0 mg/kg/injection, schedule: Q01DX Z (oral), vehicle: methylcellulose (MC) 113 % of control | dose: 212.0 mg/kg/injection, schedule: Q01DX013 (oral), vehicle: saline 109 % of control | dose: 320.0 mg/kg/injection, schedule: Q01DX Z (ip), vehicle: methylcellulose (MC) 107 % of control | dose: 320.0 mg/kg/injection, schedule: Q01DX Z (oral), vehicle: methylcellulose (MC) 108 % of control

CCCCCCN(CCCCCC)[N+](=O)[O-]
inactive: [1] 96 % of control | [2] 100 % of control | [3] 96 % of control

COC(=O)c1ccc(S(=O)(=O)O)cc1[N+](=O)[O-]
inactive: dose: 100.0 mg/kg/injection, schedule: Q04DX002 (ip), vehicle: saline 100 % of control | dose: 200.0 mg/kg/injection, schedule: Q04DX002 (ip), vehicle: saline 88 % of control | dose: 400.0 mg/kg/injection, schedule: Q04DX002 (ip), vehicle: saline 96 % of control

Cc1ncc(/C=N/O)n1Cc1ccccc1
inactive: [1] 97 % of control and 90 % of control | [4] 98 % of control | dose: 100.0 mg/kg/injection, schedule: Q04DX002 (ip), vehicle: other 94 % of control and 96 % of control | [5] 97 % of control | [2] 94 % of control and 97 % of control | [6] 94 % of control | dose: 200.0 mg/kg/injection, schedule: Q04DX002 (ip), vehicle: other 99 % of control and 105 % of control | [7] 97 % of control and 100 % of control | [3] 93 % of control and 91 % of control | [8] 105 % of control | dose: 400.0 mg/kg/injection, schedule: Q04DX002 (ip), vehicle: other 99 % of control and 92 % of control | [9] 89 % of control and 90 % of control

CCCCCCOC(=O)C(N)Cc1ccc(OC)c(N(CCCl)CCCl)c1 (stereo not given)
inactive: dose: 12.5 mg/kg/injection, schedule: Q01DX001 (ip), vehicle: saline 93 % of control | dose: 15.0 mg/kg/injection, schedule: Q01DX001 (ip), vehicle: saline 94 % of control

CCC1NC(=O)C(NC(=O)c2ncccc2O)C(C)OC(=O)C(c2ccccc2)NC(=O)C2CC(=O)CCN2C(=O)C(Cc2ccccc2)N(C)C(=O)C2CCCN2C1=O (stereo not given) (tested in a mixture with another compound)
inactive: dose: 18.75 mg/kg/injection, schedule: Q01DX009 (ip), vehicle: Klucel (hydroxypropylcellulose) (HPC) 91 % of control | dose: 37.5 mg/kg/injection, schedule: Q01DX009 (ip), vehicle: Klucel (hydroxypropylcellulose) (HPC) 107 % of control | dose: 75.0 mg/kg/injection, schedule: Q01DX009 (ip), vehicle: Klucel (hydroxypropylcellulose) (HPC) 98 % of control

CN(C)C(=O)c1ccc(O)cc1
inactive: dose: 100.0 mg/kg/injection, schedule: Q04DX003 (ip), vehicle: Klucel (hydroxypropylcellulose) (HPC) 104 % of control | dose: 200.0 mg/kg/injection, schedule: Q04DX003 (ip), vehicle: Klucel (hydroxypropylcellulose) (HPC) 92 % of control | dose: 400.0 mg/kg/injection, schedule: Q04DX003 (ip), vehicle: Klucel (hydroxypropylcellulose) (HPC) 97 % of control

CNc1cn(C2OC(CO)C(O)C2O)c(=O)[nH]c1=O (stereo not given)
inactive: dose: 100.0 mg/kg/injection, schedule: Q01DX005 (ip), vehicle: saline 96 % of control | dose: 200.0 mg/kg/injection, schedule: Q01DX005 (ip), vehicle: saline 96 % of control

CCCCCCCCCCCCCCCCCCCCCC1CCCC1
inactive: [5] 96 % of control | [7] 94 % of control | [9] 96 % of control

CCP(=S)(CP(=S)(c1ccccc1)c1ccccc1)c1ccccc1 (stereo not given)
inactive: dose: 100.0 mg/kg/injection, schedule: Q04DX002 (sc), vehicle: olive oil, sesame oil, peanut oil 104 % of control | dose: 200.0 mg/kg/injection, schedule: Q04DX002 (sc), vehicle: olive oil, sesame oil, peanut oil 104 % of control | dose: 400.0 mg/kg/injection, schedule: Q04DX002 (sc), vehicle: olive oil, sesame oil, peanut oil 104 % of control

O=C1CSC=C(c2ccccc2)O1
inactive: [10] 115 % of control | [11] 101 % of control | [12] 112 % of control

Oc1cc(O)c2c(c1)OC(c1ccc(O)c(O)c1)C(OC1(c3cc(O)c(O)c(O)c3)Oc3cc(O)cc(O)c3C(O)C1O)C2 (stereo not given)
inactive: [13] 95 % of control | [14] 97 % of control

OC1CC23C(O)CCCC12C1C=CC3C1 (stereo not given)
inactive: dose: 25.0 mg/kg/injection, schedule: Q04DX002 (ip), vehicle: saline with Tween-80 95 % of control | dose: 50.0 mg/kg/injection, schedule: Q04DX002 (ip), vehicle: saline with Tween-80 98 % of control | [10] 98 % of control | [11] 98 % of control

CCCCCCC(=O)/C=C/c1cccc(Cl)c1
inactive: [13] 88 % of control | [14] 88 % of control | [15] 95 % of control

CCOCCOCCOC(C)Oc1ccc(C(=O)OCC)cc1 (stereo not given)
inactive: [10] 103 % of control | [11] 100 % of control | [12] 107 % of control

O=c1c2ccccc2[nH]c(=S)n1CCc1ccccn1
inactive: [4] 100 % of control | [6] 95 % of control | [8] 89 % of control

CN(C)C(C)(C)CCCNc1ccnc2cc(Cl)ccc12
inactive: dose: 75.0 mg/kg/injection, schedule: Q01DX001 (ip), vehicle: carboxymethylcellulose (CMC) 100 % of control | dose: 150.0 mg/kg/injection, schedule: Q01DX001 (ip), vehicle: carboxymethylcellulose (CMC) 100 % of control

O=C1Cc2cccc3c2C(C1)CN3C(=O)c1ccccc1 (stereo not given)
inactive: [13] 90 % of control | dose: 100.0 mg/kg/injection, schedule: Q04DX003 (ip), vehicle: saline with Tween-80 100 % of control | [14] 88 % of control | dose: 200.0 mg/kg/injection, schedule: Q04DX003 (ip), vehicle: saline with Tween-80 94 % of control | [15] 97 % of control | dose: 400.0 mg/kg/injection, schedule: Q04DX003 (ip), vehicle: saline with Tween-80 95 % of control
